According to paper PMC5125695, “Antiviral Efficacy of Verdinexor In Vivo in Two Animal Models of Influenza A Virus Infection” (PLoS ONE, 2016):
Entries after “also recorded” stand apart in the source; their conditions may differ.

Test system: Influenza A/WSN/33
Format: cell-based

Structure (SMILES): O=C(/C=C\n1cnc(-c2cc(C(F)(F)F)cc(C(F)(F)F)c2)n1)NNc1ccccn1 [verdinexor]
- Sensitivity of passaged virus to verdinexor: did not result in a reduction of drug sensitivity; also recorded: remained sensitive
